Test results reported in the NIST ThermoML archive (doi:10.1016/j.jct.2013.09.043).

Key:
[1] = 101 kPa, Liquid; for viscosity: Capillary tube (Ostwald / Ubbelohde) method; for mass density: Vibrating tube method
[2] = xn = mol fraction of the nth substance listed; settings: 101 kPa, Liquid; for viscosity: Capillary tube (Ostwald / Ubbelohde) method; for mass density: Vibrating tube method

CCCCCC(C)O (stereo not drawn) [2-heptanol]
[1]
Settings	mass density [kg/m3]	viscosity [mPa·s]
298.15 K	813.38	5.296
303.15 K	809.5	4.315
308.15 K	805.72	3.535
313.15 K	801.46	2.96

CCCCC(C)O (stereo not drawn) [2-hexanol]
[1]
Settings	mass density [kg/m3]	viscosity [mPa·s]
298.15 K	810.14	4.101
303.15 K	806.13	3.411
308.15 K	802.06	2.819
313.15 K	797.96	2.219

CCC(C)O (stereo not drawn) [butan-2-ol]
[1]
Settings	mass density [kg/m3]	viscosity [mPa·s]
298.15 K	803.09	3.034
303.15 K	798.89	2.527
308.15 K	795.04	2.125
313.15 K	790.15	1.798

CCC(C)O (stereo not drawn) [butan-2-ol] + NC=O
[2], x2 = 0
Settings	mass density [kg/m3]	viscosity [mPa·s]
298.15 K	803.09	3.034
303.15 K	798.89	2.527
308.15 K	795.04	2.125
313.15 K	790.15	1.798

NC=O [formamide]
[1]
Settings	mass density [kg/m3]	viscosity [mPa·s]
298.15 K	1129	3.305
303.15 K	1125.1	2.975
308.15 K	1120.98	2.64
313.15 K	1116.85	2.42

NC=O [formamide] + CCCC(C)O
[2], x1 = 1
Settings	mass density [kg/m3]	viscosity [mPa·s]
298.15 K	1129	3.305
303.15 K	1125.1	2.975
308.15 K	1120.98	2.64
313.15 K	1116.85	2.42

NC=O [formamide] + CCCCC(C)O
[2], x1 = 1
Settings	mass density [kg/m3]	viscosity [mPa·s]
298.15 K	1129	3.305
303.15 K	1125.1	2.975
308.15 K	1120.98	2.64
313.15 K	1116.85	2.42

NC=O [formamide] + CCCCCC(C)O
[2], x1 = 1
Settings	mass density [kg/m3]	viscosity [mPa·s]
298.15 K	1129	3.305
303.15 K	1125.1	2.975
308.15 K	1120.98	2.64
313.15 K	1116.85	2.42

CCCC(C)O (stereo not drawn) [pentan-2-ol]
[1]
Settings	mass density [kg/m3]	viscosity [mPa·s]
298.15 K	805.05	3.423
303.15 K	800.88	2.834
308.15 K	796.89	2.348
313.15 K	792.62	1.979

CC(C)O [propan-2-ol]
[1]
Settings	mass density [kg/m3]	viscosity [mPa·s]
298.15 K	780.95	2.077
303.15 K	776.79	1.787
308.15 K	772.39	1.558
313.15 K	767.76	1.351

CC(C)O [propan-2-ol] + NC=O
[2], x2 = 0
Settings	mass density [kg/m3]	viscosity [mPa·s]
298.15 K	780.95	2.077
303.15 K	776.79	1.787
308.15 K	772.39	1.558
313.15 K	767.76	1.351
